From patent publication US9688816B2, “Polyetherimide compositions and methods for the manufacture and use thereof” (SABIC Global Technologies B.V., priority 2011, dated 2017)
“Also recorded” adds a separate entry of the source.

Legend:
[1] = test system: alpha or beta in vitro estradiol receptors; test: competitive radio-ligand binding assay, statements that do not separate alpha and beta; design: species or system human; conditions: alpha or beta receptor not separated; for estradiol binding / estradiol displacement: highest concentration 2.5×E-4 M
[2] = target: recombinant human estradiol receptors (rhER) alpha (α) (Homo sapiens (Human), UniProt P03372); test: competitive radio-ligand binding assay, rhER alpha; conditions: at as high as 2.5×E-4 molar concentration
Chain of recombinant human estradiol receptors (rhER) alpha (α) (P03372 whole entry): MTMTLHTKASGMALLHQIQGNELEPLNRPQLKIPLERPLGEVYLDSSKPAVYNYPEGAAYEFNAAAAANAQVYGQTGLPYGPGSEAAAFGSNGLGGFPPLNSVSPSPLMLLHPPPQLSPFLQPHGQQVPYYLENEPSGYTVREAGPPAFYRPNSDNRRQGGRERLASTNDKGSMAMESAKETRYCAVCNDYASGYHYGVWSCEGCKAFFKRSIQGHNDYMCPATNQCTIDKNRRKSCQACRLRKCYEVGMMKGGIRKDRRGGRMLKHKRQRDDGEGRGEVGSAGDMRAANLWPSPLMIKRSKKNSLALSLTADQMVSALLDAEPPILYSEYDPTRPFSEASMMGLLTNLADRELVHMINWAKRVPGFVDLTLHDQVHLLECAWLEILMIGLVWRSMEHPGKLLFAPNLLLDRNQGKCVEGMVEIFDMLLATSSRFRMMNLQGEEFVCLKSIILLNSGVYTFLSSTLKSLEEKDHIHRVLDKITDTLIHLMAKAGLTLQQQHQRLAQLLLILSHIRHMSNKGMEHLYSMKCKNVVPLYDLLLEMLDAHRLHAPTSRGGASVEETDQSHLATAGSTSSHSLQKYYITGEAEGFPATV

[3] = target: recombinant human estradiol receptors (rhER) beta 1 (β1) (Homo sapiens (Human), UniProt Q92731); test: competitive radio-ligand binding assay, rhER beta 1; conditions: at as high as 2.5×E-4 molar concentration
Chain of recombinant human estradiol receptors (rhER) beta 1 (β1) (Q92731 whole entry): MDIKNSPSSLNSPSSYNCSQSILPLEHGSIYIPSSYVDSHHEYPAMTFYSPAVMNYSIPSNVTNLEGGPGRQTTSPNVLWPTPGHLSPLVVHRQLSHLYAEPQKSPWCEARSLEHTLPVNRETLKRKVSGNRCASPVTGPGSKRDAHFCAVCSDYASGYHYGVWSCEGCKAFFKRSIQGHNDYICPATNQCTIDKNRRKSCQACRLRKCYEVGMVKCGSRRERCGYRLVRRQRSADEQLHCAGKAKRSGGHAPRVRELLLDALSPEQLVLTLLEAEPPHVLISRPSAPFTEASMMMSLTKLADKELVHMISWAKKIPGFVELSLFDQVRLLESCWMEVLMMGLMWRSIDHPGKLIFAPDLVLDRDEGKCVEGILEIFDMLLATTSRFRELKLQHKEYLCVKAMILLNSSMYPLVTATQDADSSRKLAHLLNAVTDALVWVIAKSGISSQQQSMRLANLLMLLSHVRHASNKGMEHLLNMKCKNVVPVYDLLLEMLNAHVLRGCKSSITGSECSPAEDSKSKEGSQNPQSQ

| Compound | estradiol binding / estradiol displacement [1] | further results |
| --- | --- | --- |
| C[C@]12CC[C@@H]3c4ccc(O)cc4CC[C@H]3[C@@H]1CC[C@@H]2O [A, 17b-estradiol, reference compound] | binds at a very low concentration | – |
| CC(C)(c1ccccc1)c1ccc(O)cc1 [B, p-Cumyl Phenol, reference compound] | displace estradiol at low concentrations | – |
| CC(c1ccccc1)(c1ccc(O)cc1)c1ccc(O)cc1 [D, Bisphenol Acetophenone, reference compound] | displace estradiol at low concentrations | – |
| Cc1cc(C(C)(C)c2cc(C)c(O)c(C)c2)cc(C)c1O [Example 1, Tetra Methyl BPA] | no estradiol binding | – |
| Oc1ccccc1 [Example 2, Phenol] | no estradiol binding | IC50 ([1]; highest concentration tested 2.5×E-4 M): ≥ 250 µM |
| O=C1c2ccccc2C(c2ccc(O)cc2)(c2ccc(O)cc2)N1c1ccccc1 [Example 3, N-Phenyl Phenolphthalein Bisphenol] | no estradiol binding | estradiol binding / estradiol displacement ([1]; listed as N-phenyl phenyl phenolphthalein): no displacement; estradiol displacement at the alpha receptor [2]: no detectible estradiol displacement; estradiol displacement at the beta receptor [3]: no detectible estradiol displacement |
| Oc1cccc(O)c1 [Example 4, Resorcinol] | no estradiol binding | estradiol displacement at the alpha receptor [2]: no detectible estradiol displacement; estradiol displacement at the beta receptor [3]: no detectible estradiol displacement |
| CC(C)(C)c1cc(O)c(C(C)(C)C)cc1O [Example 7, Di t-Butyl Hydroquinone] | no estradiol binding | estradiol binding / estradiol displacement ([1]; listed as di-tert butyl hydroquinone): no displacement; estradiol displacement at the alpha receptor [2]: no displacement; estradiol displacement at the beta receptor [3]: no displacement |
| Cc1cc(O)ccc1O [Example 8, Methyl Hydroquinone] | no displacement; also recorded: no estradiol binding | estradiol displacement at the beta receptor [3]: no alpha or beta estradiol displacement |
| Oc1ccc(Oc2ccc(O)cc2)cc1 [Example C, Dihydroxy Diphenyl Ether, reference compound] | displace estradiol at low concentrations | – |
| Cc1cc(C2(c3ccc(O)c(C)c3)CCCCC2)ccc1O [G, Dimethyl Cyclohexyl Bisphenol, reference compound] | displace estradiol at low concentrations | – |
| CC(C)(c1ccc(O)cc1)c1cccc(C(C)(C)c2ccc(O)cc2)c1 [K, Bisphenol M, reference compound] | displace estradiol at low concentrations | – |
| O=C1OC(c2ccc(O)cc2)(c2ccc(O)cc2)c2ccccc21 [O, Phenolphthalein, reference compound] | undesirable estradiol displacement at low concentration | – |
| Benzophenone bisphenol [reference compound] | undesirable estradiol displacement at low concentration | – |
| Biphenol [Example 6] | no estradiol binding | estradiol displacement at the alpha receptor [2]: no displacement |
| Bis Hydroxy Phenyl Menthane [reference compound] | displace estradiol at low concentrations | – |
| Dimethyl Acetophenone Bisphenol [reference compound] | displace estradiol at low concentrations | – |
| Diphenolic Acid Methyl Ester [F, reference compound] | displace estradiol at low concentrations | – |
| Spiro Biindane Bisphenol [Example 5] | no displacement; also recorded: no estradiol binding | – |
